Read-outs that look alike come from different tables or passages of the source.
Tests used:
[1] = system: TLR2 induced IL-6 in peripheral blood mononuclear cells (PBMCs); experiment: PBMC TLR2 Induced IL-6 Assay; type: cell-based; conditions: lipoteichoic acid 10 μg/ml, IL-6 by ELISA; for IC50: values without asterisk, read-out: Cell IC50
Description: PBMC TLR2 Induced IL-6 Assay Peripheral blood mononuclear cells (PBMCs) were isolated from human blood containing the anti-coagulant EDTA (2.5 mM) by centrifugation over a FICOLL® gradient. […] At the end of the culture, plates were centrifuged at 1800 rpm for 10 minutes to pellet the cells. Supernatants were harvested and analyzed for IL-6 levels by ELISA (BD Biosciences, San Jose, Calif.).

IRAK4 = IRAK4 (Homo sapiens (Human), UniProt Q9NWZ3); experiment: IRAK4 Inhibition Assay; type: biochemical
Sequence of IRAK4 (Q9NWZ3 whole entry, species assumed): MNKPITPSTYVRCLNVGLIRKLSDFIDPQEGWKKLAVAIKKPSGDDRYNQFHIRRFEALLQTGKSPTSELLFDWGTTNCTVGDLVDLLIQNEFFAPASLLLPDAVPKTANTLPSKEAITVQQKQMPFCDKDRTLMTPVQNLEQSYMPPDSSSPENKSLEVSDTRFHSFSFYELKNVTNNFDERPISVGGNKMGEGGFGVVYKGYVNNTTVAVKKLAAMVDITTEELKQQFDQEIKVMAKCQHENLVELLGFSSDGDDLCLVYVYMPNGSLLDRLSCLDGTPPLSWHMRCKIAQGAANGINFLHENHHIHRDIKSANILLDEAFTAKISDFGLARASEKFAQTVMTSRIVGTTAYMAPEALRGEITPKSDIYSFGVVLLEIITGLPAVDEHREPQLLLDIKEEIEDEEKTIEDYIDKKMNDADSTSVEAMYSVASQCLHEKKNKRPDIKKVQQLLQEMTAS
Description: IRAK4 Inhibition Assay The assays were performed in U-bottom 384-well plates. […] The reaction was initiated by the combination of IRAK4 with substrates and test compounds. The reaction mixture was incubated at room temperature for 60 min. and terminated by adding 45 μL of 35 mM EDTA to each sample.

[2] = ATP 500 μM; IRAK4 0.6 nM; 60 min at room temperature; read-out: IRAK4 IC50
[3] = human PBMCs, 5 hours, values marked * are EC50, read-out: Cell EC50 (*EC50)

SMILES	IC50 (IRAK4; [2]) [nM]	EC50 [1, 3] [nM]	other results
CC(C)(O)[C@H](F)CNC(=O)c1cnc(Nc2ncc(C#N)cn2)cc1N[C@H]1CCC[C@@H]1F [Example 55]	5		IC50 ([1]; human PBMCs, 5 hours): 27 nM
CC(C)(O)[C@H](F)CNC(=O)c1cnc(Nc2ncc(C#N)cc2Cl)cc1NC1CCCC1F (some centres unmarked) [Example 71]	2.8	394	
CC(C)(O)[C@H](F)CNC(=O)c1cnc(Nc2ncc(C#N)cc2Cl)cc1NC1CCCC1F (some centres unmarked) [Example 73]	1.5	132	
CC(C)(O)[C@H](F)CNC(=O)c1cnc(Nc2ncc(C#N)cc2Cl)cc1NC1CCCC1O (some centres unmarked) [Example 78]	3.7	64	
CC(C)(O)[C@H](F)CNC(=O)c1cnc(Nc2ncc(C#N)cc2F)cc1NC1CCC(F)C1 (some centres unmarked) [Example 82]	3	105	
CC(C)(O)[C@H](F)CNC(=O)c1cnc(Nc2ncc(C#N)cn2)cc1NC1CCC(F)C1 (some centres unmarked) [Example 87]	3.5	197	
CC(C)(O)[C@H](F)CNC(=O)c1cnc(Nc2ncc(F)cc2F)cc1NC1CCCOC1 (some centres unmarked) [Example 109]	13.7	350	
CC(C)(O)[C@H](F)CNC(=O)c1cnc(Nc2ncc(F)cc2F)cc1NC1CCCOC1 (some centres unmarked) [Example 110]	15.7	705	
CC(C)(O)[C@H](F)CNC(=O)c1cnc(Nc2ncc(C#N)cc2F)cc1NC1CCC(F)C1 (some centres unmarked) [Example 115]	4.5	65	
CC(C)Nc1cc(Nc2ncc(C#N)cc2F)ncc1C(=O)NC1CCC(C(C)(O)C2CC2)CC1 (centres unmarked) [Example 145]		275	IC50 (IRAK4; read-out: IRAK4 IC50; ATP 500 μM; IRAK4 0.6 nM; 60 min at room temperature): 4.3 nM
CC(C)(O)[C@H](F)CNC(=O)c1cnc(Nc2ncc(C#N)cc2Cl)cc1N[C@H]1CC[C@@](C)(O)CC1 [Example 152]	5.3		
CC(C)(O)[C@H](F)CNC(=O)c1cnc(Nc2ncc(C#N)cc2Cl)cc1Nc1ccc2ncsc2c1 [Example 153]	5.6		
CC(C)(O)[C@H](F)CNC(=O)c1cnc(Nc2ncc(C#N)c(N)n2)cc1NC1CC1 [Example 154]	5.2		
CC(C)CNc1cc(Nc2ncc(C#N)cc2Cl)ncc1C(=O)NC[C@@H](F)C(C)(C)O [Example 155]	4.3		
CC(F)[C@@H](C)Nc1cc(Nc2ncc(C#N)cc2Cl)ncc1C(=O)NC[C@@H](F)C(C)(C)O (some centres unmarked) [Example 159]		130	
CC(F)[C@@H](C)Nc1cc(Nc2ncc(C#N)cc2Cl)ncc1C(=O)NC[C@@H](F)C(C)(C)O (some centres unmarked) [Example 160]		846	
CS(=O)(=O)[C@H]1CC[C@H](NC(=O)c2cnc(Nc3ncc(C#N)cc3F)cc2Nc2cccc(C(N)=O)c2)CC1 [Example 161]	15.5		
CC(C)(O)[C@H](F)CNC(=O)c1cnc(Nc2ncc(C#N)cc2F)cc1NC1COC1 [Example 164]	8		
COC(=O)N[C@H]1CC[C@H](NC(=O)c2cnc(Nc3ncc(C#N)cc3F)cc2NC(C)C)CC1 [Example 165]	11.3		
CC(C)Nc1cc(Nc2ncc(C#N)cc2F)ncc1C(=O)NC1CCC(O)(c2ccnn2C)CC1 (centres unmarked) [Example 166]	8.2		
CC(C)Nc1cc(Nc2ncc(C#N)cc2F)ncc1C(=O)NC1CCC(O)(c2nccs2)CC1 (centres unmarked) [Example 167]	13		

The remaining molecules from weak to strong by IC50 (IRAK4; [2]), led by results:

IC50 (IRAK4; [2]) [nM]	SMILES	EC50 [1, 3] [nM]	other results
10.2	CC(Nc1cc(Nc2ncc(C#N)cn2)ncc1C(=O)NC[C@@H](F)C(C)(C)O)C1CC1 (some centres unmarked) [Example 163]		
8.6	CC(C)Nc1cc(Nc2ncc(C#N)cc2Cl)ncc1C(=O)NC[C@H](F)C(C)(C)O [Example 156]		
5.9	CC(C)(O)[C@H](F)CNC(=O)c1cnc(Nc2ncc(C#N)cn2)cc1N[C@H]1CCC[C@@H]1F [Example 54]		IC50 ([1]; human PBMCs, 5 hours): 126 nM
5.4	CC(C)(O)[C@H](F)CNC(=O)c1cnc(Nc2ncc(C#N)cn2)cc1NC1CCC(F)C1 (some centres unmarked) [Example 88]	266	
3.2	CC(C)(O)[C@H](F)CNC(=O)c1cnc(Nc2ncc(C#N)cc2Cl)cc1NC1CCCC1F (some centres unmarked) [Example 70]	91	
2.7	CC(C)(O)[C@H](F)CNC(=O)c1cnc(Nc2ncc(C#N)cc2Cl)cc1NC1CCCC1F (some centres unmarked) [Example 74]	84	
2.6	CC(C)(O)[C@H](F)CNC(=O)c1cnc(Nc2ncc(C#N)cc2Cl)cc1Nc1cccc(C#N)c1 [Example 162]		
2.3	CC(C)(O)[C@H](F)CNC(=O)c1cnc(Nc2ncc(C#N)cc2Cl)cc1NC1CCC(F)C1 (some centres unmarked) [Example 158]	102	
2	CC(C)(O)[C@H](F)CNC(=O)c1cnc(Nc2ncc(C#N)cc2Cl)cc1NC1CCC(F)C1 (some centres unmarked) [Example 157]		EC50 ([1]; Homo sapiens, PBMC, 5 h, values marked * are EC50, read-out: Cell EC50 (*EC50)): 71 nM
1.8	CC(C)(O)[C@H](F)CNC(=O)c1cnc(Nc2ncc(C#N)cc2Cl)cc1NC1CCC(F)C1 (some centres unmarked) [Example 57]	68	
1.7	CC(C)(O)[C@H](F)CNC(=O)c1cnc(Nc2ncc(C#N)cc2Cl)cc1NC1CCC(F)C1 (some centres unmarked) [Example 62]	52	

Reference: patent US9657009B2, “Heteroaryl substituted pyridyl compounds useful as kinase modulators” (BRISTOL-MYERS SQUIBB COMPANY, priority 2012, dated 2017)
